# From patent publication US7935815B2, “Imidazoyl pyridine compounds and salts thereof” (Eisai R&D Management Co., Ltd., priority 2007, dated 2011)
# pIC50: −log10 of the molar value.
# Test system: Aβ42 production
# Assay: Quantification of Aβ peptide in culture of neurons from rat fetus brain (Aβ ELISA)
# Assay type: cell-based
# Settings: Rattus norvegicus, Neuron, 72 h, rat primary neuronal culture (embryonic day 18 Wistar rat cerebral cortex); cultured three days after addition of compound; Aβx-42 ELISA of the medium; read-out: Aβ42 production reducing effect IC50
# How it was run: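 Primary cortical neurons from E18 Wistar rat embryos were cultured 4 days on poly-lysine, then treated with compound in Neurobasal/B27 without 2-mercaptoethanol (final DMSO ≤1%) for 3 days. Conditioned medium was assayed undiluted by ELISA for Aβx-42, against DMSO-only controls.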
row,Compound,pIC50
1,"COc1nc(/C=C/c2nc3n(n2)CCCC3c2cc(F)ccc2C(F)(F)F)ccc1-n1cnc(C)c1 (single isomer, unassigned; (-)) [Example 329, (−)-8-(5-fluoro-2-trifluoromethylphenyl)-2-{(E)-2-[6-methoxy-5-(4-methyl-1H-imidazol-1-yl)pyridin-2-yl]vinyl}-5,6,7,8-tetrahydro-[1,2,4]triazolo[1,5-a]pyridine]",7.77
2,"COc1nc(/C=C/c2nc3n(n2)CCCC3c2c(F)cccc2C(F)(F)F)ccc1-n1cnc(C)c1 (single isomer, unassigned; (-)) [Example 331, (−)-8-(6-fluoro-2-trifluoromethylphenyl)-2-{(E)-2-[6-methoxy-5-(4-methyl-1H-imidazol-1-yl)pyridin-2-yl]vinyl}-5,6,7,8-tetrahydro-[1,2,4]triazolo[1,5-a]pyridine]",7.66
3,"COc1nc(/C=C/c2nc3n(n2)CCCC3c2cccc(F)c2C)ccc1-n1cnc(C)c1 (single isomer, unassigned; (-)) [Example 333, (−)-8-(3-fluoro-2-methylphenyl)-2-{(E)-2-[6-methoxy-5-(4-methyl-1H-imidazol-1-yl)pyridin-2-yl]vinyl}-5,6,7,8-tetrahydro-[1,2,4]triazolo[1,5-a]pyridine]",8.00
4,"COc1nc(/C=C/c2nc3n(n2)CCCC3c2cc(F)cc(F)c2)ccc1-n1cnc(C)c1 (single isomer, unassigned; (-)) [Example 337, (−)-8-(3,5-difluorophenyl)-2-{(E)-2-[6-methoxy-5-(4-methyl-1H-imidazol-1-yl)pyridin-2-yl]vinyl}-5,6,7,8-tetrahydro[1,2,4]triazolo[1,5-a]pyridine]",7.89
5,"Cc1cn(-c2ccc(/C=C/c3nc4n(n3)CCCC4c3ccccc3C(F)(F)F)nc2OCC(F)F)cn1 (single isomer, unassigned; (-)) [Example 354, (−)-2-{(E)-2-[5-(4-methyl-1H-imidazol-1-yl)-6-(2,2-difluoroethoxy)pyridin-2-yl]vinyl}-8-(2-trifluoromethylphenyl)-5,6,7,8-tetrahydro-[1,2,4]triazolo[1,5-a]pyridine]",7.43
6,"COc1cc(/C=C/c2nc3n(n2)CCC/C3=C\c2ccccc2)ccc1-n1cnc(C)c1 [Example 12, 2-{(E)-2-[3-methoxy-4-(4-methyl-1H-imidazol-1-yl)phenyl]vinyl}-8-[1-phenylmethy-(E)-lidene]-5,6,7,8-tetrahydro[1,2,4]triazolo[1,5-a]pyridine]",6.87
7,"COc1cc(/C=C/c2nc3n(n2)C[C@H](C)C[C@@H]3c2ccc(F)cc2)ccc1-n1cnc(C)c1 [Example 97, (6R,8R)-8-(4-fluorophenyl)-2-{(E)-2-[3-methoxy-4-(4-methyl-1H-imidazol-1-yl)phenyl]vinyl}-6-methyl-5,6,7,8-tetrahydro-[1,2,4]triazolo[1,5-a]pyridine]",7.42
8,"COc1cc(/C=C/c2nc3n(n2)C[C@@H](C)C[C@@H]3c2ccc(F)cc2)ccc1-n1cnc(C)c1 [Example 99, (6S,8R)-8-(4-fluorophenyl)-2-{(E)-2-[3-methoxy-4-(4-methyl-1H-imidazol-1-yl)phenyl]vinyl}-6-methyl-5,6,7,8-tetrahydro-[1,2,4]triazolo[1,5-a]pyridine]",7.70
9,"COc1cc(/C=C/c2nc3n(n2)CC[C@@H](C)[C@@H]3c2ccc(F)cc2)ccc1-n1cnc(C)c1 [Example 102, (7R,8R)-8-(4-fluorophenyl)-2-{(E)-2-[3-methoxy-4-(4-methyl-1H-imidazol-1-yl)phenyl]vinyl}-7-methyl-5,6,7,8-tetrahydro-[1,2,4]triazolo[1,5-a]pyridine]",7.70
10,"COc1cc(/C=C/c2nc3n(n2)CC[C@H](O)[C@H]3c2cc(F)c(F)c(F)c2)ccc1-n1cnc(C)c1 [Example 103, (7S,8S)-2-{(E)-2-[3-methoxy-4-(4-methyl-1H-imidazol-1-yl)phenyl]vinyl}-8-(3,4,5-trifluorophenyl)-5,6,7,8-tetrahydro-[1,2,4]triazolo[1,5-a]pyridin-7-ol]",7.49
